Assay results from patent publication USRE48335E1, “Polymyxin derivatives as antimicrobial compounds” (priority 2014, dated 2020).
In brackets after ≈: the same amount, converted by molar mass. Positions of bridges follow the written chain, without caps; N, C: chain ends. Non-standard residues stand in square brackets, D forms with d. Residues, ends and D or L forms follow the SMILES beside them. *: point of attachment. Decanoyl = CCCCCCCCCC(=O)*; Nonanoyl = CCCCCCCCC(=O)*; Heptanoyl = CCCCCCC(=O)*; Octanoyl = CCCCCCCC(=O)*; Dab = NCC[C@H](N)C(=O)O; Dap = NC[C@H](N)C(=O)O; Aib = CC(C)(N)C(=O)O

Legend:
Enterobacter cloacae = system: Enterobacter cloacae
Description: (§1) MICs of the lipopeptides (trifluoroacetic acid salt, TFA) were determined by broth microdilution in cation-adjusted Mueller-Hinton broth (CAMHB) (Oxoid Australia, Thebarton, SA, Australia) according to Clinical and Laboratory Standards Institute standards (Clinical and Laboratory Standards Institute. Performance standards for antimicrobial susceptibility testing; eighteenth informational supplement M100-S18. Wayne, Pa., 2008). Polymyxin B (sulphate) was employed as control. […]

Acinetobacter baumannii = system: Acinetobacter baumannii
Description: as §1

Pseudomonas aeruginosa = system: Pseudomonas aeruginosa
Description: as §1

CCCCCCCCCC(=O)N[C@@H](CCN)C(=O)N[C@H](C(=O)N[C@@H](CN)C(=O)N[C@H]1CCNC(=O)[C@H]([C@@H](C)O)NC(=O)[C@H](CCN)NC(=O)[C@H](CCN)NC(=O)[C@H](C(C)C)NC(=O)[C@@H](CC(C)C)NC(=O)[C@H](CCN)NC1=O)[C@@H](C)O [Compound 39] (Decanoyl-[Dab]T[Dap][Dab][Dab][dL]V[Dab][Dab]T; lactam 4-C)
Minimum inhibitory concentration, Ec FADDI-EC001 (Enterobacter cloacae): 0.5 µg/mL (≈ 0.433 µM)
Minimum inhibitory concentration, Ec FADDI-EC003 (Enterobacter cloacae): 0.5 µg/mL (≈ 0.433 µM)
Minimum inhibitory concentration, Ec FADDI-EC006 (Enterobacter cloacae): 0.5 µg/mL (≈ 0.433 µM)
Minimum inhibitory concentration, Ab A ATCC 17978 (Acinetobacter baumannii): 2 µg/mL (≈ 1.73 µM)
Minimum inhibitory concentration, Ab ATCC 19606 (Acinetobacter baumannii): 0.5 µg/mL (≈ 0.433 µM)
Minimum inhibitory concentration, Ab FADDI-AB034 (Acinetobacter baumannii): 1 µg/mL (≈ 0.865 µM)
Minimum inhibitory concentration, Pa ATCC 27853 (Pseudomonas aeruginosa): 1 µg/mL (≈ 0.865 µM)
Minimum inhibitory concentration, Pa FADDI-PA022 (Pseudomonas aeruginosa): 2 µg/mL (≈ 1.73 µM)
Minimum inhibitory concentration, Pa FADDI-PA025 (Pseudomonas aeruginosa): 2 µg/mL (≈ 1.73 µM)

CCCCCCCCCC(=O)N[C@@H](CCN)C(=O)N[C@H](C(=O)N[C@@H](CCN)C(=O)N[C@H]1CCNC(=O)[C@H]([C@@H](C)O)NC(=O)[C@H](CCN)NC(=O)[C@H](CCN)NC(=O)[C@H](C)NC(=O)[C@@H](CC(C)C)NC(=O)[C@H](CCN)NC1=O)[C@@H](C)O [Compound 40] (Decanoyl-[Dab]T[Dab][Dab][Dab][dL]A[Dab][Dab]T; lactam 4-C)
Minimum inhibitory concentration, Ec FADDI-EC001 (Enterobacter cloacae): 0.25 µg/mL (≈ 0.219 µM)
Minimum inhibitory concentration, Ec FADDI-EC003 (Enterobacter cloacae): 0.25 µg/mL (≈ 0.219 µM)
Minimum inhibitory concentration, Ec FADDI-EC006 (Enterobacter cloacae): 0.25 µg/mL (≈ 0.219 µM)
Minimum inhibitory concentration, Ab A ATCC 17978 (Acinetobacter baumannii): 0.5 µg/mL (≈ 0.438 µM)
Minimum inhibitory concentration, Ab ATCC 19606 (Acinetobacter baumannii): 0.5 µg/mL (≈ 0.438 µM)
Minimum inhibitory concentration, Ab FADDI-AB034 (Acinetobacter baumannii): 0.5 µg/mL (≈ 0.438 µM)
Minimum inhibitory concentration, Pa ATCC 27853 (Pseudomonas aeruginosa): 0.5 µg/mL (≈ 0.438 µM)
Minimum inhibitory concentration, Pa FADDI-PA022 (Pseudomonas aeruginosa): 2 µg/mL (≈ 1.75 µM)
Minimum inhibitory concentration, Pa FADDI-PA025 (Pseudomonas aeruginosa): 4 µg/mL (≈ 3.5 µM)

CCCCCCCCCC(=O)N[C@@H](CCN)C(=O)N[C@H](C(=O)N[C@@H](CCN)C(=O)N[C@H]1CCNC(=O)[C@H]([C@@H](C)O)NC(=O)[C@H](CCN)NC(=O)[C@H](CCN)NC(=O)[C@H](C(C)C)NC(=O)[C@@H](CC(C)C)NC(=O)[C@H](CCN)NC1=O)[C@@H](C)O [Compound 41] (Decanoyl-[Dab]T[Dab][Dab][Dab][dL]V[Dab][Dab]T; lactam 4-C)
Minimum inhibitory concentration, Ec FADDI-EC001 (Enterobacter cloacae): 1 µg/mL (≈ 0.855 µM)
Minimum inhibitory concentration, Ec FADDI-EC003 (Enterobacter cloacae): 0.5 µg/mL (≈ 0.428 µM)
Minimum inhibitory concentration, Ec FADDI-EC006 (Enterobacter cloacae): 0.5 µg/mL (≈ 0.428 µM)
Minimum inhibitory concentration, Ab A ATCC 17978 (Acinetobacter baumannii): 1 µg/mL (≈ 0.855 µM)
Minimum inhibitory concentration, Ab ATCC 19606 (Acinetobacter baumannii): 1 µg/mL (≈ 0.855 µM)
Minimum inhibitory concentration, Ab FADDI-AB034 (Acinetobacter baumannii): 0.5 µg/mL (≈ 0.428 µM)
Minimum inhibitory concentration, Pa ATCC 27853 (Pseudomonas aeruginosa): 1 µg/mL (≈ 0.855 µM)
Minimum inhibitory concentration, Pa FADDI-PA022 (Pseudomonas aeruginosa): 4 µg/mL (≈ 3.42 µM)
Minimum inhibitory concentration, Pa FADDI-PA025 (Pseudomonas aeruginosa): 2 µg/mL (≈ 1.71 µM)

CCCCCCC(=O)N[C@@H](CCN)C(=O)N[C@H](C(=O)N[C@@H](CCN)C(=O)N[C@H]1CCNC(=O)[C@H]([C@@H](C)O)NC(=O)[C@H](CCN)NC(=O)[C@H](CCN)NC(=O)[C@H]([C@@H](C)O)NC(=O)[C@@H](CC(C)C)NC(=O)[C@H](CCN)NC1=O)[C@@H](C)O [Compound 42] (Heptanoyl-[Dab]T[Dab][Dab][Dab][dL]T[Dab][Dab]T; lactam 4-C)
Minimum inhibitory concentration, Ec FADDI-EC001 (Enterobacter cloacae): <0.125 µg/mL
Minimum inhibitory concentration, Ec FADDI-EC003 (Enterobacter cloacae): <0.125 µg/mL
Minimum inhibitory concentration, Ec FADDI-EC006 (Enterobacter cloacae): 0.25 µg/mL (≈ 0.221 µM)
Minimum inhibitory concentration, Ab A ATCC 17978 (Acinetobacter baumannii): 4 µg/mL (≈ 3.54 µM)
Minimum inhibitory concentration, Ab ATCC 19606 (Acinetobacter baumannii): 4 µg/mL (≈ 3.54 µM)
Minimum inhibitory concentration, Ab FADDI-AB034 (Acinetobacter baumannii): 2 µg/mL (≈ 1.77 µM)
Minimum inhibitory concentration, Pa ATCC 27853 (Pseudomonas aeruginosa): 0.5 µg/mL (≈ 0.443 µM)
Minimum inhibitory concentration, Pa FADDI-PA022 (Pseudomonas aeruginosa): 2 µg/mL (≈ 1.77 µM)
Minimum inhibitory concentration, Pa FADDI-PA025 (Pseudomonas aeruginosa): >32 µg/mL

CCCCCCCCC(=O)N[C@@H](CCN)C(=O)N[C@H](C(=O)N[C@@H](CCN)C(=O)N[C@H]1CCNC(=O)[C@H]([C@@H](C)O)NC(=O)[C@H](CCN)NC(=O)[C@H](CCN)NC(=O)[C@H]([C@@H](C)O)NC(=O)[C@@H](CC(C)C)NC(=O)[C@H](CCN)NC1=O)[C@@H](C)O [Compound 43] (Nonanoyl-[Dab]T[Dab][Dab][Dab][dL]T[Dab][Dab]T; lactam 4-C)
Minimum inhibitory concentration, Ec FADDI-EC001 (Enterobacter cloacae): 0.25 µg/mL (≈ 0.216 µM)
Minimum inhibitory concentration, Ec FADDI-EC003 (Enterobacter cloacae): <0.125 µg/mL
Minimum inhibitory concentration, Ec FADDI-EC006 (Enterobacter cloacae): 0.5 µg/mL (≈ 0.432 µM)
Minimum inhibitory concentration, Ab A ATCC 17978 (Acinetobacter baumannii): 0.5 µg/mL (≈ 0.432 µM)
Minimum inhibitory concentration, Ab ATCC 19606 (Acinetobacter baumannii): 0.5 µg/mL (≈ 0.432 µM)
Minimum inhibitory concentration, Ab FADDI-AB034 (Acinetobacter baumannii): 1 µg/mL (≈ 0.864 µM)
Minimum inhibitory concentration, Pa ATCC 27853 (Pseudomonas aeruginosa): 0.5 µg/mL (≈ 0.432 µM)
Minimum inhibitory concentration, Pa FADDI-PA022 (Pseudomonas aeruginosa): 1 µg/mL (≈ 0.864 µM)
Minimum inhibitory concentration, Pa FADDI-PA025 (Pseudomonas aeruginosa): 16 µg/mL (≈ 13.8 µM)

CCCCCCC(=O)N[C@@H](CCN)C(=O)N[C@H](C(=O)N[C@@H](CN)C(=O)N[C@H]1CCNC(=O)[C@H]([C@@H](C)O)NC(=O)[C@H](CCN)NC(=O)[C@H](CCN)NC(=O)[C@H]([C@@H](C)O)NC(=O)[C@@H](CC(C)C)NC(=O)[C@H](CCN)NC1=O)[C@@H](C)O [Compound 44] (Heptanoyl-[Dab]T[Dap][Dab][Dab][dL]T[Dab][Dab]T; lactam 4-C)
Minimum inhibitory concentration, Ec FADDI-EC001 (Enterobacter cloacae): 0.25 µg/mL (≈ 0.224 µM)
Minimum inhibitory concentration, Ec FADDI-EC003 (Enterobacter cloacae): <0.125 µg/mL
Minimum inhibitory concentration, Ec FADDI-EC006 (Enterobacter cloacae): <0.125 µg/mL
Minimum inhibitory concentration, Ab A ATCC 17978 (Acinetobacter baumannii): 1 µg/mL (≈ 0.897 µM)
Minimum inhibitory concentration, Ab ATCC 19606 (Acinetobacter baumannii): 1 µg/mL (≈ 0.897 µM)
Minimum inhibitory concentration, Ab FADDI-AB034 (Acinetobacter baumannii): 1 µg/mL (≈ 0.897 µM)
Minimum inhibitory concentration, Pa ATCC 27853 (Pseudomonas aeruginosa): 0.5 µg/mL (≈ 0.448 µM)
Minimum inhibitory concentration, Pa FADDI-PA022 (Pseudomonas aeruginosa): 1 µg/mL (≈ 0.897 µM)
Minimum inhibitory concentration, Pa FADDI-PA025 (Pseudomonas aeruginosa): 16 µg/mL (≈ 14.3 µM)

CCCCCCCC(=O)N[C@@H](CCN)C(=O)N[C@H](C(=O)N[C@@H](CN)C(=O)N[C@H]1CCNC(=O)[C@H]([C@@H](C)O)NC(=O)[C@H](CCN)NC(=O)[C@H](CCN)NC(=O)C(C)(C)NC(=O)[C@@H](CC(C)C)NC(=O)[C@H](CCN)NC1=O)[C@@H](C)O [Compound 45] (Octanoyl-[Dab]T[Dap][Dab][Dab][dL][Aib][Dab][Dab]T; lactam 4-C)
Minimum inhibitory concentration, Ec FADDI-EC001 (Enterobacter cloacae): 0.5 µg/mL (≈ 0.449 µM)
Minimum inhibitory concentration, Ec FADDI-EC003 (Enterobacter cloacae): 0.25 µg/mL (≈ 0.225 µM)
Minimum inhibitory concentration, Ec FADDI-EC006 (Enterobacter cloacae): 0.5 µg/mL (≈ 0.449 µM)
Minimum inhibitory concentration, Ab A ATCC 17978 (Acinetobacter baumannii): 4 µg/mL (≈ 3.59 µM)
Minimum inhibitory concentration, Ab ATCC 19606 (Acinetobacter baumannii): 8 µg/mL (≈ 7.19 µM)
Minimum inhibitory concentration, Ab FADDI-AB034 (Acinetobacter baumannii): 2 µg/mL (≈ 1.8 µM)
Minimum inhibitory concentration, Pa ATCC 27853 (Pseudomonas aeruginosa): 0.5 µg/mL (≈ 0.449 µM)
Minimum inhibitory concentration, Pa FADDI-PA022 (Pseudomonas aeruginosa): 1 µg/mL (≈ 0.898 µM)
Minimum inhibitory concentration, Pa FADDI-PA025 (Pseudomonas aeruginosa): 16 µg/mL (≈ 14.4 µM)
